Laboratory results: US20070015663A1, “Growth regulator and process for growth regulation of plant” (SUPER BLAST SYSTEMS CO., LTD., priority 2001, published 2007)
Where two headings read alike, the source gives them in different places.

Key:
Veronica persica Poir = experiment: Germination and seedling growth of Veronica persica Poir with test solution; format: in vivo
Description: (§1) Absorbent cotton was spread on a 4.5 cm dish, and thereto was added 10 ml of a test solution. Seeds (10 seeds) were added thereto, grown at 23° C. for 4 days in the dark, and thereafter cultured at 23° C. for 3 days in the light (about 3000 lux).
FIG. 10 is a drawing illustrating the state of seeds within each of the dishes similarly to FIG. 1, and each control is shown. […] In addition, the lengths of each embryonic axis shoots and root are indicated.
(§2) Indole-3-acetate (IAA) was used as the auxin.

tomato = experiment: Germination and seedling growth of tomato on absorbent cotton with test solution; format: in vivo, tomato (Lycopersicon esculentum)
Description: as §1
FIG. 3 is a drawing illustrating the state of germination within each of the dishes similarly to FIG. 1. FIG. 4 is a drawing comparing the length of each embryonic axis (shoot) and that of each root similarly to FIG. 2.
FIG. 11 is a drawing illustrating the state of seeds within each of the dishes similarly to FIG. 1, and each control is shown. […] In addition, the lengths of each shoot and root are presented.
as §2

lettuce [1] = test system: lettuce
Description: as §1

radish = test system: radish
Description: as §1

rice = details: 23° C. 4 days dark + 3 days light
Description: as §1
FIG. 1 is a drawing illustrating the state of seeds within each of the dishes. FIG. 2 is a drawing comparing the length of each shoot and the length of each root. […] For reference, the length of the label is 5 mm.

lettuce [2] = test system: lettuce; remark: listed apart in the source
Description: For control 1, absorbent cotton was spread on a 4.5 cm dish, and thereto was added 10 ml of water. Seeds (10 seeds) were added thereto, grown at 23° C. for 4 days in the dark, and thereafter cultured at 23° C. for 3 days in the light (about 3000 lux).

perennial ryegrass = test system: perennial ryegrass
Description: as §1
FIG. 7 is a drawing illustrating the state of seeds within each of the dishes similarly to FIG. 1. FIG. 8 is a drawing comparing the length of each shoot and that of each root similarly to FIG. 2.

[3] = volcanic ash+0.1% NaHCO3 (100 g and 0.1% NaHCO3 solution 28 g)
[4] = volcanic ash+1% NaHCO3 (100 g and 1% NaHCO3 solution 28 g)
[5] = volcanic ash+10% NaHCO3 (100 g and saturated sodium bicarbonate solution 28 g)

## O=C(O)Cc1c[nH]c2ccccc12 [IAA, indole-3-acetate]
Veronica persica Poir; Example 9, IAA 10^−4 M alone
  length of the root: 11 mm
  length of the shoot: 8 mm
Veronica persica Poir; Example 9, IAA 10^−5 M alone
  length of the root: 22 mm
  length of the shoot: 13 mm
tomato; Example 8, IAA 10^−4 M alone
  length of the root: 30 mm
  length of the shoot: 20 mm
tomato; Example 8, IAA 10^−5 M alone
  length of the root: 41 mm
  length of the shoot: 23 mm

## O=C([O-])O.[Na+] [NaHCO3, sodium bicarbonate]
Veronica persica Poir; in vivo
  length of the root: 9 mm
  length of the shoot: 8 mm
Lettuce [1]; NaHCO3 0.003%
  length of the root: 18.7±4.7 mm
  length of the shoot: 14.0±0.6 mm
Lettuce [1]; NaHCO3 0.01%
  length of the root: 21.0±0.6 mm
  length of the shoot: 24.3±0.9 mm
Lettuce [1]; NaHCO3 0.03%
  length of the root: 14.3±1.9 mm
  length of the shoot: 24.3±0.3 mm
Lettuce [1]; NaHCO3 0.1%
  length of the root: 11.0±0.6 mm
  length of the shoot: 15.7±0.3 mm
Lettuce [1]; NaHCO3 0.3%
  length of the root: 3.7±0.3 mm
  length of the shoot: 6.7±0.3 mm
Lettuce [1]; NaHCO3 1%
  length of the root: 0±0 mm
  length of the shoot: 0±0 mm
radish; NaHCO3 0.003%
  length of the embryonic axis (shoot): 66.3±4.1 mm
  length of the root: 37.0±1.5 mm
radish; NaHCO3 0.01%
  length of the embryonic axis (shoot): 74.0±1.5 mm
  length of the root: 71.3±1.9 mm
radish; NaHCO3 0.03%
  length of the embryonic axis (shoot): 60.0±3.1 mm
  length of the root: 80.7±5.9 mm
radish; NaHCO3 0.1%
  length of the embryonic axis (shoot): 66.7±3.4 mm
  length of the root: 22.0±1.5 mm
radish; NaHCO3 0.3%
  length of the embryonic axis (shoot): 19.3±0.7 mm
  length of the root: 7.3±1.3 mm
radish; NaHCO3 1%
  length of the embryonic axis (shoot): 0±0 mm
  length of the root: 0±0 mm
rice; NaHCO3 0.003%
  length of the root: 32.0±9.3 mm
  length of the shoot: 11.0±1.0 mm
rice; NaHCO3 0.01%
  length of the root: 18.0±9.7 mm
  length of the shoot: 10.0±0 mm
rice; NaHCO3 0.03%
  length of the root: 23.7±0.9 mm
  length of the shoot: 15.0±1.0 mm
rice; NaHCO3 0.1%
  length of the root: 20.7±2.3 mm
  length of the shoot: 13.3±0.9 mm
rice; NaHCO3 0.3%
  length of the root: 2.3±0.3 mm
  length of the shoot: 7.3±1.5 mm
rice; NaHCO3 1%
  length of the root: 0±0 mm
  length of the shoot: 3.3±0.3 mm
tomato; in vivo
  germination: germination does not occur
  length of the shoot: 5 mm
Lettuce [2]; [3]
  development of the root: 21.0±0.8 mm
  development of the shoot: 33.4±1.1 mm
Lettuce [2]; [4]
  length of the root: 5.4±1.1 mm
  length of the shoot: 26.0±1.5 mm
Lettuce [2]; [5]
  development of the root: 0 mm
  development of the shoot: 0 mm
Perennial ryegrass; NaHCO3 0.003%
  length of the root: 25.3±0.9 mm
  length of the shoot: 24.7±0.3 mm
Perennial ryegrass; NaHCO3 0.01%
  length of the root: 27.3±1.5 mm
  length of the shoot: 42.0±0.6 mm
Perennial ryegrass; NaHCO3 0.03%
  length of the root: 26.0±0.6 mm
  length of the shoot: 44.3±1.5 mm
Perennial ryegrass; NaHCO3 0.1%
  length of the root: 28.0±1.5 mm
  length of the shoot: 55.7±0.7 mm
Perennial ryegrass; NaHCO3 0.3%
  length of the root: 4.7±0.3 mm
  length of the shoot: 19.0±0.6 mm
Perennial ryegrass; NaHCO3 1%
  length of the root: 0±0 mm
  length of the shoot: 0±0 mm
